Source: patent US20040248844A1, “Method for the treatment or prevention of Flavivirus infections using nucleoside analogues” (priority 2000, published 2004)

These compounds were tested against T1, HCV RNA-dependent RNA polymerase (NS5B protein) (Hepatitis C virus genotype 1b, UniProt P26663) (assay: HCV RNA-dependent RNA polymerase assay (in vitro RdRp assay, heteropolymeric RNA template)). Details: natural NTP substrates of purified NS5B in the RdRp assay.
T1 construct: The cDNA encoding the entire NS5B protein of HCV-Bk strain, genotype 1b; initiator Met (ATG added before the NS5B coding region) (N); made in house; host or cells: Sf9 insect cells, recombinant baculovirus (pBlueBacII, BacNS5B)
T1 sequence (P26663 2420-3010): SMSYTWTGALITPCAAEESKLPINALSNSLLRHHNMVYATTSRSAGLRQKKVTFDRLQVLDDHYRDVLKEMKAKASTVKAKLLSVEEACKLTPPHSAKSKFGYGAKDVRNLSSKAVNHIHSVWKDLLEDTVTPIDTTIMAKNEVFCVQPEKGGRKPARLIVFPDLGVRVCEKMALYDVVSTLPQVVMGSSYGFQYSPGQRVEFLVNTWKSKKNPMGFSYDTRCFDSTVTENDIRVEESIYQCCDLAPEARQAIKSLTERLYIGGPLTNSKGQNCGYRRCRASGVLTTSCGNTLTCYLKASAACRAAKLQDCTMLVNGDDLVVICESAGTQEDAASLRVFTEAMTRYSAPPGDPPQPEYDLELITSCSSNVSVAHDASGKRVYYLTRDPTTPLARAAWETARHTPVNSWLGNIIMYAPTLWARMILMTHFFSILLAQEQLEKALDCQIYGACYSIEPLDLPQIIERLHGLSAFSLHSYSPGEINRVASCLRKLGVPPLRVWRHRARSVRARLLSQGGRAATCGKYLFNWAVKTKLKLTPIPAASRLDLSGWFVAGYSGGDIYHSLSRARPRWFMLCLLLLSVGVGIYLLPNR
Format: biochemical, HCV-Bk strain
Method: Compounds were evaluated using an in vitro polymerase assay containing purified recombinant HCV RNA-dependent RNA polymerase (NS5B protein). HCV NS5B was expressed in insect cells using a recombinant baculovirus as vector. The experimental procedures used for the cloning, expression and purification of the HCV NS5B protein are described below. Following are details of the RNA-dependent RNA polymerase assays used to test the compounds.
The cDNA encoding the entire NS5B protein of HCV-Bk strain, genotype 1b, was amplified by PCR using a plasmid containing a cDNA version of the full-length HCV genome as template. The oligonucleotides used to amplify this HCV region were designed to introduce a NheI site followed by an ATG at the 5′ end of the NS5B coding region as well as a BamHI site at the 3′end immediately downstream of the translation stop codon. The amplified sequence, of 1.8 kb, was digested with NheI and BamHI and ligated to a predigested pBlueBacII plasmid (Invitrogen). The resulting recombinant plasmid was designated pBac/NS5B. Sf9 cells were co-transfected with 3 μg of pBac/NS5B, together with 1 μg of linearized baculovirus DNA (Invitrogen), as described in the manufacturer's protocol. Following two rounds of plaque purification, an NS5B-recombinant baculovirus, BacNS5B, was isolated. The presence of the recombinant NS5B protein was determined by western blot analysis (Harlow and Lane, 1988) of BacNS5B-infected Sf9 cells, using a HCV NS5B specific rabbit polyclonal antiserum (anti-NS5B). Infections of Sf9 cells with this plaque purified virus were performed in one-liter spinner flasks at a cell density of 1.2×10^6 cells/ml and a multiplicity of infection of 5.
Sf9 cells were infected as described above. Sixty hours post-infection, cells were harvested then washed twice with phosphate buffer saline (PBS). Total proteins were solubilized as described in Lohmann et al. […] with some modifications. In brief, proteins were extracted in three steps, S1, S2, S3, using lysis buffers (LB) I, LB II and LB III (Lohmann et al, 1997). The composition of LBII was modified to contain 0.1% triton X-100 and 150 mM NaCl to reduce the amount of solubilized NS5B protein at this step. In addition, sonication of cell extracts was avoided throughout the protocol to preserve the integrity of the protein structure.
Soluble NS5B protein in the S3 fraction was diluted to lower the NaCl concentration to 300 mM, then it incubated batchwise with DEAE sepharose beads (Amersham-Pharmacia) for 2 hrs at […], as described by Behrens et al. (1989). Unbound material was cleared by centrifugation for 15 min at 4° C., at 25 000 rpm using a SW41 rotor (Beckman). The supernatant was further diluted to lower the NaCl concentration to 200 mM and subsequently loaded, with a flow rate of 1 ml/min, on a 5 ml HiTrap® heparin column (Amersham-Pharmacia) connected to an FPLC® system (Amersham-Pharmacia). Bound proteins were eluted in 1 ml fractions, using a continuous NaCl gradient of 0.2 to 1 M, over a 25 ml volume. NS5B-containing fractions were identified by sodium dodecyl sulfate polyacrylamide gel electrophoresis (SDS-PAGE), followed by western blotting using the anti-NS5B antiserum at a dilution of 1:2000. Positive fractions were pooled and the elution buffer was exchanged against a 50 mM NaPO4 pH 7.0, 20% glycerol, 0.5% triton X-100 and 10 mM DTT, using a PD-10 column (Amersham-Pharmacia). The sample was then loaded onto a 1 ml HiTrap® SP column (Amersham-Pharmacia), with a flow rate of 0.1 ml/min. Bound proteins were eluted using a continuous 0 to 1 M NaCl gradient over a 15 ml volume. Eluted fractions were analyzed by SDS-PAGE and western blotting. Alternatively, proteins were visualized, following SDS-PAGE, by silver staining using the Silver Stain Plus kit (BiORad) as described by the manufacturer.
RdRp assays were conducted using in vitro transcribed heteropolymeric RNA templates. […]
Nc1ccn([C@@H]2O[C@H](COP(=O)(O)OP(=O)(O)OP(=O)(O)O)[C@@H](O)[C@H]2O)c(=O)n1 [CTP, reference compound] was tested, and the “measured Kms for the four substrates” value was 0.5 µM. In the case of O=c1ccn([C@@H]2O[C@H](COP(=O)(O)OP(=O)(O)OP(=O)(O)O)[C@@H](O)[C@H]2O)c(=O)[nH]1 [UTP, reference compound], the “measured Kms for the four substrates” value is reported as 1.2 µM. In the case of Nc1ncnc2c1ncn2[C@@H]1O[C@H](COP(=O)(O)OP(=O)(O)OP(=O)(O)O)[C@@H](O)[C@H]1O [ATP, reference compound], the “measured Kms for the four substrates” value is reported as 18 µM. In the case of Nc1nc2c(ncn2[C@@H]2O[C@H](COP(=O)(O)OP(=O)(O)OP(=O)(O)O)[C@@H](O)[C@H]2O)c(=O)[nH]1 [GTP, reference compound], the “measured Kms for the four substrates” value is reported as 0.5 µM.

Same assay, conditions: purified recombinant NS5B 200 ng; competing NTP at twice Km, other NTPs 100 μM; 2 h at 22° C.; triphosphate form tested
With Nc1nc(=O)n([C@@H]2O[C@H](COP(=O)(O)OP(=O)(O)OP(=O)(O)O)C[C@H]2O)cc1Cl [COMPOUND#20, 5- = Chloro-3′-deoxycytidine-5′triphosphate] the IC50 was 180 nM. CC(=O)Nc1nc2c(ncn2[C@@H]2O[C@H](COP(=O)(O)OP(=O)(O)OP(=O)(O)O)C[C@H]2O)c(=O)[nH]1 [COMPOUND#14, 2-N-acetyl-3′-deoxyguanosine-5′triphosphate] showed an IC50 of 3100 nM. “6-Chloro- 3′-deoxyguanosine- 5′triphosphate [COMPOUND#32]” showed an IC50 of 6800 nM. In the case of O=c1[nH]c(=O)n([C@@H]2O[C@H](COP(=O)(O)OP(=O)(O)OP(=O)(O)O)C[C@H]2O)cc1Cl [COMPOUND#28, 5-Chloro-3′-deoxyuridine-5′triphosphate], the IC50 is reported as 2100 nM. Compound [N-]=[N+]=N[C@H]1[C@@H](O)[C@H](n2ccc(N)nc2=O)O[C@@H]1COP(=O)(O)OP(=O)(O)OP(=O)(O)O [COMPOUND#54, 3′-azido-3′-deoxycytidine 5′triphosphate] has an IC50 of 9000 nM. O=c1ccn([C@@H]2O[C@H](COP(=O)(O)OP(=O)(O)OP(=O)(O)O)C[C@H]2O)c(=O)[nH]1 [COMPOUND#6, 3′-deoxyuridine-5′triphosphate] showed an IC50 of 260 nM. In the case of Nc1nc(=O)n([C@@H]2O[C@H](COP(=O)(O)OP(=O)(O)OP(=O)(O)O)C[C@H]2O)cc1I [COMPOUND#18, 5-Iodo-3′-deoxycytidine-5′triphosphate], the IC50 is reported as 6880 nM. With Nc1ccn([C@@H]2O[C@H](COP(=O)(O)OP(=O)(O)OP(=O)(O)O)C[C@H]2O)c(=O)n1 [COMPOUND#2, 3′-deoxycytidine-5′triphosphate] the IC50 was 36 nM. Compound Nc1nc(=O)n([C@@H]2O[C@H](COP(=O)(O)OP(=O)(O)OP(=O)(O)O)C[C@H]2O)cc1F [COMPOUND#4, 5-Fluoro-3′-deoxycytidine-5′triphosphate] has an IC50 of 300 nM. Compound Nc1nc(=O)n([C@@H]2O[C@H](COP(=O)(O)OP(=O)(O)OP(=O)(O)O)C[C@H]2O)cc1I [COMPQUND#26, 5- = Iodp-3′-deoxycytidine-5′triphosphate] has an IC50 of 910 nM. Compound O=c1[nH]c(=O)n([C@@H]2O[C@H](COP(=O)(O)OP(=O)(O)OP(=O)(O)O)C[C@H]2O)cc1Br [COMPOUND#30, 5-Bromo-3′-deoxyuridine-5′triphosphate] has an IC50 of 2900 nM. For O=c1[nH]c(=O)n([C@@H]2O[C@H](COP(=O)(O)OP(=O)(O)OP(=O)(O)O)C[C@H]2O)cc1F [COMPOUND#8, 5-Fluoro-3′-deoxyuridine-5′triphosphate], the IC50 was 1980 nM. With Cc1cn([C@@H]2O[C@H](COP(=O)(O)OP(=O)(O)OP(=O)(O)O)C[C@H]2O)c(=O)nc1N [COMPOUND#16, 5-Methyl-3′-deoxycytidine-5′triphosphate] the IC50 was 360 nM. Work on Cc1cn([C@H]2CC[C@@H](COP(=O)(O)OP(=O)(O)OP(=O)(O)O)O2)c(=O)[nH]c1=O [COMPOUND#10, 3′-deoxythymidine-5′triphosphate] yielded an IC50 of 6400 nM. For Nc1nc2c(ncn2[C@@H]2O[C@H](COP(=O)(O)OP(=O)(O)OP(=O)(O)O)C[C@H]2O)c(=O)[nH]1 [COMPOUND#12, 3′-deoxyguanosine-5′triphosphate], the IC50 was 48 nM. For Nc1nc(O)c2ncn([C@@H]3O[C@H](COP(=O)(O)OP(=O)(O)OP(=O)(O)O)[C@@H](F)[C@H]3O)c2n1 [COMPOUND#22, 3′-fluoro-3′-deoxyguanosine-5′triphosphate], the IC50 was 120 nM. Nc1ccn([C@@H]2O[C@H](COP(=O)(O)OP(=O)(O)OP(=O)(O)O)[C@@H](F)[C@H]2O)c(=O)n1 [COMPOUND#24, 3′-fluoro-3′-deoxycytidine-5′triphosphate] showed an IC50 of 55 nM.
